{
  "source": "patent US9617304B2",
  "about": "“Pharmaceutical composition containing an endocytic motif and protein transduction domains for preventing or treating cancer” (Korea Research Institute Of Bioscience And Biotechnology, priority 2011, dated 2017)",
  "key": {"Tac/3S chimeric protein": {"system": "Tac/3S chimeric protein", "test": "Endocytosis of Tac/3S chimeric protein in COS-7 cells after pretreatment with inhibitors", "type": "cell-based", "settings": "for endocytosis of Tac/3S chimeric protein: COS-7, 100 μg/ml ConA, 80 μM Dynasore, 1 μM Go6976, 1 μM K252a, 1 μM Vinblastine, 30 minutes pretreatment", "method": "Each of plasmid DNAs encoding Tac chimeric proteins illustrated in FIG. 2 was expressed in COS-7 cell line to induce endocytosis. To quantify endocytosis percentage, the following method was used. First, plasmid DNA was transfected into COS-7 cell line, and next day, cells were suspended in DMED supplemented with 10% FBS, and seeded onto an 8-well slide glass (Thermo, 154534) to 50% confluency. Next day, to block endocytosis, cells were transferred at 4° C. and left for 30 minutes. Anti-Tac (BD BIOSCIENCES, 347640) antibody was diluted in DMEM supplemented with 10% FBS at a ratio of 1:10, and treated at 4° C. for 30 minutes. The cells were washed with medium three times. To induce endocytosis again, the cells were transferred at 5% CO2 and 37° C., and left for different time periods. The cells were fixed in 4% paraformaldehyde for 45 minutes at room temperature. To detect cell surface anti-Tac antibody, anti-mouse IgG-ALEXA FLUOR 488 (INVITROGEN, A-11001) was diluted with PBS containing 3% normal goat serum (Vector, S-1000) at a ratio of 1:500, and treated at room temperature for 1 hour. Then, the cells were washed with PBST for 5 minutes three times. For permeablization and blocking, the cells were treated with PBST containing 3% normal goat serum at room temperature for 1 hour. Next, to detect intracellular Tac, anti-mouse IgG-ALEXA FLUOR 568 (INVITROGEN, A11061) was diluted with PBST containing 3% normal goat serum at a ratio of 1:500, and treated at room temperature for 1 hour. The cells were washed with PBST three times, and mounted in Mounting Medium with DAPI (Vector, H-1200). Next day, the sample was examined by fluorescence microscopy (Olympus IX2-UCB). For treatment of inhibitors, 100 μg/ml ConA (SIGMA, C0412), 80 μM Dynasore (SIGMA, D7693), 1 μM Go6976 (CALBIOCHEM, 365250), 1 μM K252a (INVITROGEN, PHZ1131) and 1 μM Vinblastine (SIGMA, V1377) were pretreated at 5% CO2 and 37° C. for 30 minutes, before endocytosis assay."}, "COS-7 cells": {"system": "COS-7 cells", "test": "Endocytosis of Tac chimeric proteins expressed in COS-7 cells, fluorescence microscopy", "type": "cell-based", "quoted_text": "To quantify endocytosis percentage, the following method was used. First, plasmid DNA was transfected into COS-7 cell line, and next day, cells were suspended in DMED supplemented with 10% FBS, and seeded onto an 8-well slide glass (Thermo, 154534) to 50% confluency. Next day, to block endocytosis, cells were transferred at 4° C. and left for 30 minutes. Anti-Tac (BD BIOSCIENCES, 347640) antibody was diluted in DMEM supplemented with 10% FBS at a ratio of 1:10, and treated at 4° C. for 30 minutes. The cells were washed with medium three times. To induce endocytosis again, the cells were transferred at 5% CO2 and 37° C., and left for different time periods. The cells were fixed in 4% paraformaldehyde for 45 minutes at room temperature. […] Next day, the sample was examined by fluorescence microscopy (Olympus IX2-UCB). […] To quantify endocytosis of Tac chimeric proteins expressed in COS-7 cells over time, the following Equation was used. […] As such, green fluorescence intensity indicates the amount of cell surface Tac, and red fluorescence intensity signifies those of endocytosed Tac plus partial cell surface Tac. […] Partially detected surface Tac by anti-mouse IgG-ALEXA FLUOR 568 was measured by comparing fluorescence intensity between green and red at 0 min in which no endocytosis occurred. Red fluorescence intensity was 0.429-fold or green fluorescence intensity at 0 min, which was defined as α. […]"}},
  "data": [
    {"molecule": "O=C(N/N=C/c1ccc(O)c(O)c1)c1cc2ccccc2cc1O", "note": "[Dynasore]", "values": [
      {"measurement": "endocytosis of Tac/3S chimeric protein", "setting": "Tac/3S chimeric protein", "value": "inhibited"}
    ]},
    {"molecule": "Cn1c2ccccc2c2c3c(c4c5ccccc5n(CCC#N)c4c21)CNC3=O", "note": "[Go6976]", "values": [
      {"measurement": "endocytosis of Tac/3S chimeric protein", "setting": "Tac/3S chimeric protein", "value": "inhibited"}
    ]},
    {"molecule": "COC(=O)[C@@]1(O)C[C@H]2O[C@]1(C)n1c3ccccc3c3c4c(c5c6ccccc6n2c5c31)C(=O)NC4", "note": "[K252a]", "values": [
      {"measurement": "endocytosis of Tac/3S chimeric protein", "setting": "Tac/3S chimeric protein", "value": "not inhibited"}
    ]},
    {"molecule": "CC[C@]1(O)C[C@@H]2CN(CCc3c([nH]c4ccccc34)[C@@](C(=O)OC)(c3cc4c(cc3OC)N(C)[C@H]3[C@@](O)(C(=O)OC)[C@H](OC(C)=O)[C@]5(CC)C=CCN6CC[C@]43[C@@H]65)C2)C1", "note": "[Vinblastine]", "values": [
      {"measurement": "transportation of Tac/3S protein to the perinuclear region", "setting": "Tac/3S chimeric protein; COS-7, 1 μM Vinblastine", "value": "blocked"},
      {"measurement": "endocytosis of Tac/3S chimeric protein", "setting": "Tac/3S chimeric protein", "value": "not inhibited"}
    ]},
    {"molecule": "Concannavalin A [ConA]", "values": [
      {"measurement": "endocytosis of Tac/3S chimeric protein", "setting": "Tac/3S chimeric protein", "value": "inhibited"}
    ]},
    {"molecule": "Tac/3S: fusion protein of Tac and 3S polypeptide (protein) ELCDDDPPEIPHATFKAMAYKEGTMLNCECKRGFRRIKSGSLYMLCTGNSSHSSWDNQCQCTSSATRNTTKQVTPQPEEQKERKTTEMQSPMQPVDQASLPGHCREPPPWENEATERIYHFVVGQMVYYQCVQGYRALHRGPAESVCKMTHGKTRWTQPQLICTGEMETSQFPGEEKPQASPEGRPESETSCLVTTTDFQIQTEMAATMETSIFTTEYQKCVAPYPSLLSSEDNA", "values": [
      {"measurement": "subcellular localization (colocalization test)", "setting": "COS-7 cells", "value": "partially merged with ER tracker"}
    ]}
  ]
}
